According to PMC2853259 (Analytical biochemistry, 2010):

Target: Paraoxonase 1 (PON1) (Homo sapiens, UniProt P27169)
Assay type: cell-based

Chain of Paraoxonase 1 (PON1) (P27169 2-355): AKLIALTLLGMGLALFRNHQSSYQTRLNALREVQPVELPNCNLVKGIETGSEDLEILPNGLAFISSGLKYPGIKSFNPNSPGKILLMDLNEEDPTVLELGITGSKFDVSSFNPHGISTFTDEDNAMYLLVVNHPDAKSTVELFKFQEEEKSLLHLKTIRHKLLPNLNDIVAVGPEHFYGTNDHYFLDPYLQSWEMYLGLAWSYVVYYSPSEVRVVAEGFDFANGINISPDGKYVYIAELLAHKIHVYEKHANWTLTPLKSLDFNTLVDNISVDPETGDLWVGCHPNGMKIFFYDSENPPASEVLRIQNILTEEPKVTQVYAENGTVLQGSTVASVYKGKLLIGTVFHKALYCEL

## Oc1ccc2ccccc2n1 [2HQ, 2-hydroxyquinoline]
  IC50: 5.4 ± 3.6 µM
